28 compounds from patent publication US9127027B2, “Epoxyeicosatrienoic acid analogs and methods of making and using the same” (The Medical College of Wisconsin, Inc., priority 2011, dated 2015) can be followed below.

Read-outs that look alike come from different tables or passages of the source.

One assay concerns bovine coronary artery. Briefly: Vasorelaxant activity in bovine coronary artery rings precontracted with U-46619. In kind it is cell-based. The conditions noted are these: for activation at 10 µM / Vascular Relax. % (10 μM): 100% relaxation = basal pre-U-46619 tension; for activation at 10 µM: read-out: Vascular Relax. % (10 μM); for EC50: bovine coronary artery, read-out: Vascular Relax. EC50. Here is the method:
Vasorelaxant activity was measured in bovine coronary artery. Bovine hearts were obtained and the left anterior descending coronary artery was dissected and cleaned of connective tissue. Vessels of 1 mm diameter were cut into rings of 3 mm width as previously described (3, 27, 39). […] The vessels were suspended from a pair of stainless steel hooks in a 6-ml water-jacketed organ chamber. […] One hook was anchored to a steel rod and the other hook to a force transducer (model FT-03C; Grass Instruments, West Warwick, R.I.). Tension of the vessel was measured by an ETH-400 bridge amplifier, and the data were acquired with a MacLab 8e analog-to-digital converter and MacLab software version 3.5.6 (AD Instruments, Milford, Mass.) and stored on a Macintosh computer for subsequent data analysis.
Basal tension was set at the length-tension maximum of 3.5 g and equilibrated for 1.5 h. KCl (40 mM) was added to the chamber until reproducible maximal contractions were maintained. […] Cumulative additions of compounds were added to the chamber. Between concentration-response curves, the chambers were rinsed with fresh Krebs buffer, 40 mM KCl was administered to determine the maximum contraction, and the vessels were rinsed. Consecutive concentration-response curves were performed with 14,15-EET followed by a concentration-response curve to a compound. The experiment was always repeated with the order of the agonists reversed. […] The relaxation was plotted versus compound concentration and the EC50 determined utilizing statistical software.

The target in another assay is Human recombinant sEH (Homo sapiens (Human), UniProt P34913). The assay can be described thus: Soluble epoxide hydrolase inhibition (PHOME fluorescent substrate). In kind it is biochemical. To be noted: Table 1 head prints μM (Table 2 prints nM for same numbers); read-out: sEHi IC50. The method, then: Compounds were tested for their ability to inhibit recombinant soluble epoxide hydrolase (sEH) protein. The assay utilizes (3-Phhenyl-oxiranyl)-acetic acid cyano-(6-methoxy-naphthalen-2-yl)-methyl ester (PHOME), a sensitive substrate for sEH that can be used to monitor the activity of both human and murine enzymes. […] Human recombinant sEH was incubated with substrate and compounds ranging in concentration from 0.1 to 1000 nM.
Sequence of Human recombinant sEH (P34913 whole entry): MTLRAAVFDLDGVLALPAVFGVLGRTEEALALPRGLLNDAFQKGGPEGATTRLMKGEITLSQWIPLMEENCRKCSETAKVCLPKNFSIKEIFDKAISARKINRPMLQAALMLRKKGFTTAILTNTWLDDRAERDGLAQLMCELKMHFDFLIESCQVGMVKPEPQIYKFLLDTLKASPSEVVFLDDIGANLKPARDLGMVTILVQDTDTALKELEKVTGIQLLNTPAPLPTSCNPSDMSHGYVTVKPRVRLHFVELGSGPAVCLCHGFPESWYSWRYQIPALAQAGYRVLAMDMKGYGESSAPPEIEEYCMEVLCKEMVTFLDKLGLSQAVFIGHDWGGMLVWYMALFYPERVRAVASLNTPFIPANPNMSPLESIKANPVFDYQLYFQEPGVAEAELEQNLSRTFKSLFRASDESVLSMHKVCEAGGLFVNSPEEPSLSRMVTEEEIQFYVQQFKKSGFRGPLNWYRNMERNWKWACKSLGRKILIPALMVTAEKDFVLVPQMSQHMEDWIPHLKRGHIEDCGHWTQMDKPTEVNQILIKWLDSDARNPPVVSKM

As for `CCCCCNC(=O)NCCCC/C=C\CCCCCSc1ccccc1O` [Compound 13, 1-(11-(2-Hydroxyphenylthio)undec-5(Z)-enyl)-3-n-pentylurea], in the assay on bovine coronary artery (Bos taurus), the activation at 10 µM stood at 48% and the concentration giving a half-maximal response (EC50) was over 10000 nM. Further, the IC50 on Human recombinant sEH was determined as 0.006 µM.

As to `CCCCCNC(=O)NCCCC/C=C\CCCCCCC(=O)NS(=O)(=O)c1ccccc1` [Compound 8, 13-(3-n-Pentylureido)-N-(phenylsulfonyl)tridec-8(Z)-enamide], the “Vascular Relax. % (10 μM)” value with bovine coronary artery was 73%. Besides, the EC50 in the assay on bovine coronary artery (Bos taurus) was 6000 nM. For the same compound, on Human recombinant sEH, the IC50 came out at 0.041 µM.

Take `CCCCCNC(=O)NCCCC/C=C\CCCCCCC1=NOS(=O)N1` (stereo not shown) [Compound 25]: the “Vascular Relax. % (10 μM)” value in the assay with bovine coronary artery is given as 109%. The EC50 with bovine coronary artery (Bos taurus) was 340 nM. Also, the 50% inhibitory concentration (IC50) at Human recombinant sEH worked out at 0.01 µM.

Regarding `CCCCCNC(=O)NCCCC/C=C\CCCCCC1SC(=O)NC1=O` (stereo not shown) [Compound 24, 1-(11-(2,4-Dioxothiazolidin-5-yl)undec-5(Z)-enyl)-3-n-pentylurea], in the assay on bovine coronary artery (Bos taurus), the activation at 10 µM was 47% and the EC50 was over 10000 nM. The concentration for half-maximal inhibition (IC50) at Human recombinant sEH was 0.057 µM.

`CCCCNC(=O)C(=O)NCCCC/C=C\CCCCCCC(=O)OCCOCCOCCO` [Compound 3, 2-(2-(2-Hydroxyethoxy)ethoxy)ethyl13-(2-(n-butylamino)-2 oxoacetamido)tridec-8(Z)-enoate]: in the assay on bovine coronary artery, the “Vascular Relax. % (10 μM)” value is 104% and the EC50 stood at 1500 nM. The IC50 on Human recombinant sEH is over 0.5 µM.

Turning to `CCCCCNC(=O)NCCCC/C=C\CCCCCCC(=O)OCCOCCOCCO` [Compound 2, 2-(2-(2-Hydroxyethoxy)ethoxy)ethyl 13-(3-n-pentylureido)tridec-8(Z)-enoate], in the assay on bovine coronary artery, the “Vascular Relax. % (10 μM)” value amounted to 72% and the EC50 is 5100 nM.

For the compound `CCCCCNC(=O)NCCCC/C=C\CCCCCS(=O)(=O)c1ncn[nH]1` [Compound 18], in the assay on bovine coronary artery (Bos taurus), the activation at 10 µM came out at 92% and the EC50 was determined as 3100 nM. Further, at Human recombinant sEH, the IC50 is 0.023 µM.

With `CCCCCCC(=O)N(CCCC/C=C\CCCCCCc1nnn[nH]1)C(C)C` [Compound 19], the “Vascular Relax. % (10 μM)” value with bovine coronary artery is listed as 74%. In addition, in the assay with bovine coronary artery (Bos taurus), the concentration for a half-maximal effect (EC50) was found to be 1000 nM.

Regarding `CCCCCCC(=O)N(CCCC/C=C\CCCCCCC(=O)NCC(=O)O)C(C)C` [Compound 5, 2-(13-(N-Isopropylheptanamido)tridec-8(Z)-enamido)acetic acid], in the assay on bovine coronary artery, the “Vascular Relax. % (10 μM)” value is 95%. Moreover, in the assay on bovine coronary artery (Bos taurus), the concentration for a half-maximal effect (EC50) worked out at 1900 nM.

Turning to `CCCCCNC(=O)NCCCC/C=C\CCCCCS(=O)(=O)c1ccccc1O` [Compound 14, 1-(11-(2-Hydroxyphenylsulfonyl)undec-5(Z)-enyl)-3-n-pentylurea], in the assay on bovine coronary artery (Bos taurus), the activation at 10 µM was 76% and the half-maximal effective concentration (EC50) was 5000 nM.

`CCCCNC(=O)C(=O)NCCCC/C=C\CCCCCCC1=NOS(=O)N1` (stereo not shown) [Compound 27]: in the assay on bovine coronary artery (Bos taurus), the activation at 10 µM was determined as 116% and the EC50 came out at 360 nM. Also, the 50% inhibitory concentration (IC50) at Human recombinant sEH was over 0.5 µM.

For the compound `CCCCCNC(=O)NCCCC/C=C\CCCCCCP(=O)([O-])[O-].[Na+].[Na+]` [Compound 10], the “Vascular Relax. % (10 μM)” value in the assay on bovine coronary artery amounted to 71%. Besides, in the assay on bovine coronary artery (Bos taurus), the EC50 is over 10000 nM. Besides, the IC50 at Human recombinant sEH is over 0.5 µM.

On to `CCCCCNC(=O)NCCCC/C=C\CCCCCCCc1nnn[nH]1` [Compound 22, 1-(13-(1H-Tetrazol-5-yl)tridec-5(Z)-enyl)-3-n-pentylurea], for which the “Vascular Relax. % (10 μM)” value in the assay on bovine coronary artery turned out to be 110%. In addition, in the assay with bovine coronary artery (Bos taurus), the EC50 turned out to be 1100 nM. Also, at Human recombinant sEH, the concentration for half-maximal inhibition (IC50) is 0.032 µM.

As for `CCCCCN(C)C(=O)N(C)CCCC/C=C\CCCCCCC(=O)NCC(=O)O` [Compound 6, 2-(13-(1,3-Dimethyl-3-n-pentylureido)tridec-8(Z)-enamido)acetic acid], in the assay with bovine coronary artery, the “Vascular Relax. % (10 μM)” value was found to be 92%. Besides, the EC50 in the assay on bovine coronary artery (Bos taurus) was found to be 2750 nM. Further, the IC50 at Human recombinant sEH was over 0.5 µM.

For `CCCCCCC(=O)N(CCCC/C=C\CCCCCCC(=O)OCCOCCOCCO)C(C)C` [Compound 1, 2-(2-(2-Hydroxyethoxy)ethoxy)ethyl 13-(N-isopropylheptanamido)tridec-8(Z)-enoate], in the assay with bovine coronary artery, the “Vascular Relax. % (10 μM)” value came out at 86% and the EC50 turned out to be 2900 nM. In addition, the 50% inhibitory concentration (IC50) at Human recombinant sEH was over 0.5 µM.

For `CCCCCNC(=O)NCCCC/C=C\CCCCC[S+]([O-])c1ncn[nH]1` (stereo not shown) [Compound 17], in the assay with bovine coronary artery (Bos taurus), the activation at 10 µM came to 92% and the EC50 was 3500 nM. At Human recombinant sEH, the IC50 worked out at 0.096 µM.

As for `CCCCNC(=O)C(=O)NCCCCCOc1cccc2sc(NC(C)=O)nc12` [Compound 32], the “Vascular Relax. % (10 μM)” value in the assay on bovine coronary artery is 96%. Further, the concentration giving a half-maximal response (EC50) in the assay on bovine coronary artery (Bos taurus) was 2400 nM.

`CCCCCNC(=O)NCCCC/C=C\CCCCCCS(=O)(=O)[O-].[Na+]` [Compound 11]: in the assay on bovine coronary artery, the “Vascular Relax. % (10 μM)” value came to 63%. Also, the EC50 in the assay on bovine coronary artery (Bos taurus) came to 7600 nM. The IC50 at Human recombinant sEH is 0.057 µM.

As to `CCCCCNC(=O)NCCCC/C=C\CCCCCCc1noc(=S)[nH]1` [Compound 28], the “Vascular Relax. % (10 μM)” value with bovine coronary artery is reported as 93%. Further, in the assay on bovine coronary artery (Bos taurus), the EC50 stood at 3300 nM. Besides, the concentration for half-maximal inhibition (IC50) on Human recombinant sEH was 0.031 µM.

For the compound `CCCCCNC(=O)NCCCC/C=C\CCCCCCc1noc(=O)[nH]1` [Compound 23], the “Vascular Relax. % (10 μM)” value in the assay with bovine coronary artery worked out at 89%. Moreover, the EC50 in the assay on bovine coronary artery (Bos taurus) was found to be 1100 nM. For the same compound, the half-inhibitory concentration (IC50) on Human recombinant sEH was determined as 0.065 µM.

As to `CCCCCNC(=O)NCCCC/C=C\CCCCCSc1ncn[nH]1` [Compound 16], in the assay with bovine coronary artery (Bos taurus), the activation at 10 µM was determined as 53% and the half-maximal effective concentration (EC50) was 9800 nM. Besides, on Human recombinant sEH, the IC50 was found to be 0.032 µM.

As to `CCCCCNC(=O)NCCCCCOc1cccc2sc(NC(C)=O)nc12` [Compound 31, N-(4-(5-(3-n-Pentylureido)pentyloxy)benzo[d]thiazol-2-yl)acetamide], in the assay on bovine coronary artery, the “Vascular Relax. % (10 μM)” value is listed as 73%. In addition, the EC50 in the assay on bovine coronary artery (Bos taurus) worked out at 900 nM. The 50% inhibitory concentration (IC50) at Human recombinant sEH is over 0.5 µM.

Take `CCCCCNC(=O)NCCCC/C=C\CCCCCSc1nnn[nH]1` [Compound 15, 1-(11-(1H-Tetrazol-5-ylthio)undec-5(Z)-enyl)-3-pentylurea]: in the assay with bovine coronary artery (Bos taurus), the activation at 10 µM amounted to 85% and the EC50 worked out at 3700 nM. Besides, the 50% inhibitory concentration (IC50) at Human recombinant sEH stood at 0.022 µM.

For the compound `CCCCCNC(=O)NCCCC/C=C\CCCCOCC(=O)O` [Compound 4, 2-(10-(3-n-Pentylureido)dec-5(Z)-enyloxy)acetic acid], the “Vascular Relax. % (10 μM)” value in the assay on bovine coronary artery came to 49%. Moreover, in the assay on bovine coronary artery (Bos taurus), the EC50 was 630 nM. In addition, the half-inhibitory concentration (IC50) at Human recombinant sEH was found to be 0.237 µM.

As for `CCCCNC(=O)C(=O)NCCCC/C=C\CCCCCCc1nnn[nH]1` [Compound 21], in the assay on bovine coronary artery, the “Vascular Relax. % (10 μM)” value was determined as 96%. For the same compound, in the assay with bovine coronary artery (Bos taurus), the EC50 came out at 1700 nM. Also, the IC50 at Human recombinant sEH was over 0.5 µM.

Turning to `CCCCCNC(=O)NCCCC/C=C\CCCCCCc1nsc(=O)[nH]1` [Compound 29], in the assay on bovine coronary artery, the “Vascular Relax. % (10 μM)” value was found to be 54%. For the same compound, in the assay on bovine coronary artery (Bos taurus), the EC50 was 2400 nM. In addition, the IC50 at Human recombinant sEH is 0.231 µM.

Consider `CCCCCNC(=O)NCCCC/C=C\CCCCCNS(=O)(=O)c1ccccc1` [Compound 12, N-(11-(3-n-Pentylureido)undec-6(Z)-enyl)benzenesulfonamide], for which, in the assay on bovine coronary artery (Bos taurus), the activation at 10 µM came to 75% and the EC50 was found to be 3400 nM. Besides, the concentration for half-maximal inhibition (IC50) at Human recombinant sEH worked out at 0.032 µM.

On to `CCCCCNC(=O)NCCCC/C=C\CCCCCCC(=O)NS(C)(=O)=O` [Compound 9, N-(Methylsulfonyl)-13-(3-n-pentylureido)tridec-8(Z)-enamide], for which the “Vascular Relax. % (10 μM)” value in the assay on bovine coronary artery amounted to 61%. The EC50 in the assay with bovine coronary artery (Bos taurus) is 6700 nM. For the same compound, the IC50 on Human recombinant sEH stood at 0.071 µM.
